Reference: ChEMBL document CHEMBL5131537 (J Med Chem, 2022)

Legend:
[1] = system: Human immunodeficiency virus 1; experiment: microbe, parasite or virus in culture; conditions: Human immunodeficiency virus 1, IIIB, MT4
Description: Antiviral activity against wild type HIV-1 IIIB infected in human MT4 cells assessed as protection against virus-induced cytopathic effect by MTT assay

[2] = system: Human immunodeficiency virus 1; experiment: Antiviral activity against HIV-1 IIIB harboring reverse transcriptase […] mutant infected in human MT4 cells by MTT assay; format: functional, organism-based; conditions: Human immunodeficiency virus 1, IIIB
in vitro [3] = conditions: human, MT4 cells
Description: Selectivity index, ratio of CC50 for cytotoxicity against human MT4 cells to EC50 for antiviral activity against wild type HIV-1 IIIB infected in human MT4 cells

[4] = Cytotoxicity against human MT4 cells assessed as reduction in cell viability by MTT assay; format: toxicity, cell-based
[5] = molecular target: Human immunodeficiency virus type 1 reverse transcriptase (Human immunodeficiency virus 1, UniProt Q72547)
Description: Inhibition of HIV-1 reverse transcriptase using oligo(dT)16 as primer measured after 40 mins by picogreen-dye based spectrofluorometric analysis

[6] = system: Human immunodeficiency virus 1; experiment: Antiviral activity against HIV-1 IIIB harboring reverse transcriptase K103N mutant infected in human MT4 cells by MTT assay; format: functional, organism-based; conditions: Human immunodeficiency virus 1, IIIB
[7] = system: Human immunodeficiency virus 1; experiment: microbe, parasite or virus in culture; conditions: Human immunodeficiency virus 1, IIIB, MT4; remark: listed apart in the source
Description: Antiviral activity against HIV-1 IIIB harboring reverse transcriptase Y188L mutant infected in human MT4 cells by MTT assay

[8] = system: Human immunodeficiency virus 1; experiment: Antiviral activity against HIV-1 IIIB harboring reverse transcriptase E138K mutant infected in human MT4 cells by MTT assay; format: functional, organism-based; conditions: Human immunodeficiency virus 1, IIIB
[9] = system: Human immunodeficiency virus 1; experiment: Antiviral activity against HIV-1 IIIB harboring reverse transcriptase Y181C mutant infected in human MT4 cells by MTT assay; format: functional, organism-based; conditions: Human immunodeficiency virus 1, IIIB
in vitro [10] = conditions: human
in vitro [11] = conditions: human; remark: listed apart in the source
[12] = Metabolic stability in human liver assessed as intrinsic clearance in microsomes at 1 uM measured up to 45 mins in presence of NADPH by LC-MS/MS analysis; format: ADME; conditions: read-out: CLH

| SMILES | EC50 [1] [nM] | IC50 [5] [nM] | CLint scaled at 0.75 h, 1 µM (in vitro [10]) [mL/min/kg] | half-life at 0.75 h, 1 µM (in vitro [11]; microsomes) [min] | EC50 [2] [nM] | selectivity ratio (in vitro [3]) | CC50 [4] [nM] | EC50 [6] [nM] | EC50 [7] [nM] | EC50 [8] [nM] | EC50 [9] [nM] | CLint scaled at 0.75 h, 1 µM (in vitro [10]; liver) [mL/min/kg] | half-life at 0.75 h, 1 µM (in vitro [11]; liver microsomes) [min] | microsomal CLint at 1 µM [12] [µL/min/mg] |
| --- | --- | --- | --- | --- | --- | --- | --- | --- | --- | --- | --- | --- | --- | --- |
| COc1cc2cc(C#N)ccc2c(OC)c1Oc1cc(N)nc(Nc2ccc(C#N)cc2)n1 | 5 | – | – | – | 38 | 3500 | 19000 | – | – | – | – | – | – | – |
| Cc1cc(-c2ccc(C#N)cc2)ccc1Oc1cc(N)nc(Nc2ccc(C#N)cc2)n1 | 2 | 29 | – | – | 38 | 5250 | 10400 | 3 | 1110 | 9 | 32 | – | – | – |
| Cc1cc(-c2cccc(C#N)c2)ccc1Oc1cc(N)nc(Nc2ccc(C#N)cc2)n1 | 5.5 | 41 | – | – | 287 | 4940 | 27400 | 105 | 6550 | 36 | 450 | – | – | – |
| Cc1cc(-c2cccc(C#N)c2)cc(C)c1Oc1cc(N)nc(Nc2ccc(C#N)cc2)n1 | 7 | 42 | – | – | 88 | 2890 | 20200 | 8 | 878 | 46 | 73 | – | – | – |
| Cc1cc(-c2cccc(F)c2)ccc1Oc1cc(N)nc(Nc2ccc(C#N)cc2)n1 | 60.6 | 101 | – | – | – | 187 | 11300 | – | – | – | – | – | – | – |
| Cc1cc(-c2ccc(C#N)cc2)cc(C)c1Oc1cc(N)nc(Nc2ccc(C#N)cc2)n1 | 4.7 | 37 | – | – | 8 | 3870 | 18100 | 4 | 82 | 12 | 16 | – | – | – |
| COc1cc(Oc2cc(N)nc(Nc3ccc(C#N)cc3)n2)ccc1-c1ccc(C#N)cc1 | 2.3 | 30 | – | – | 36 | 5590 | 12900 | 12 | 1360 | 13 | 28 | – | – | – |
| Cc1cc(-c2ccccc2C#N)ccc1Oc1cc(N)nc(Nc2ccc(C#N)cc2)n1 | 9.84 | 50 | – | – | – | 2900 | 28600 | – | – | – | – | – | – | – |
| Cc1cc(-c2ccccc2)ccc1Oc1cc(N)nc(Nc2ccc(C#N)cc2)n1 | 19 | 39 | – | – | – | 1050 | 20000 | – | – | – | – | – | – | – |
| Cc1cc(-c2ccc(F)cc2)ccc1Oc1cc(N)nc(Nc2ccc(C#N)cc2)n1 | 9.5 | 50 | – | – | – | 2120 | 20100 | – | – | – | – | – | – | – |
| Cc1cc(-c2ccc(C#N)c(C#N)c2)cc(C)c1Oc1cc(N)nc(Nc2ccc(C#N)cc2)n1 | 5.69 | 40 | – | – | – | 3090 | 17600 | – | – | – | – | – | – | – |
| Cc1cc(Oc2cc(N)nc(Nc3ccc(C#N)cc3)n2)ccc1-c1ccc(C#N)cc1 | 2.3 | 26 | – | – | 71 | 15100 | 34300 | 10 | 1420 | 12 | 33 | 1.08 | 38.5 | 36 |
| Cc1cc(-c2ccc(C#N)c(F)c2)ccc1Oc1cc(N)nc(Nc2ccc(C#N)cc2)n1 | 6 | 39 | – | – | – | 1090 | 6600 | – | – | – | – | – | – | – |
| Cc1cc(-c2ccc(C#N)c(C#N)c2)ccc1Oc1cc(N)nc(Nc2ccc(C#N)cc2)n1 | 10.9 | 90 | – | – | – | 7040 | 76700 | – | – | – | – | – | – | – |
| O=C(O)Cc1ccccc1Nc1c(Cl)cccc1Cl [DICLOFENAC] | – | – | 4.49 | 9.25 | – | – | – | – | – | – | – | – | – | 150 |
| O=C1Nc2ccc(Cl)cc2[C@@](C#CC2CC2)(C(F)(F)F)O1 [EFAVIRENZ] | – | – | – | – | 30 | – | > 6340 | – | – | – | 7 | – | – | – |
| Cc1cc(C#N)cc(C)c1Oc1nc(Nc2ccc(C#N)cc2)nc(N)c1Br [ETRAVIRINE] | 2.9 | – | – | – | 6 | – | > 4600 | 2 | 18 | 6 | – | – | – | – |
| Cc1ccnc2c1NC(=O)c1cccnc1N2C1CC1 [NEVIRAPINE] | – | – | – | – | 1360 | – | > 15000 | 5840 | > 15000 | – | 11500 | – | – | – |

More lines, main results first:

| EC50 [1] [nM] | IC50 [5] [nM] | CLint scaled at 0.75 h, 1 µM (in vitro [10]) [mL/min/kg] | half-life at 0.75 h, 1 µM (in vitro [11]; microsomes) [min] | SMILES | EC50 [2] [nM] | selectivity ratio (in vitro [3]) | CC50 [4] [nM] | EC50 [6] [nM] | EC50 [7] [nM] | EC50 [8] [nM] | EC50 [9] [nM] | CLint scaled at 0.75 h, 1 µM (in vitro [10]; liver) [mL/min/kg] | half-life at 0.75 h, 1 µM (in vitro [11]; liver microsomes) [min] | microsomal CLint at 1 µM [12] [µL/min/mg] |
| --- | --- | --- | --- | --- | --- | --- | --- | --- | --- | --- | --- | --- | --- | --- |
| 11.5 | 45 | – | – | Cc1cc(-c2ccccc2F)ccc1Oc1cc(N)nc(Nc2ccc(C#N)cc2)n1 | – | 2560 | 29500 | – | – | – | – | – | – | – |
| 38 | 85 | – | – | Cc1cc(-c2cccc(Cl)c2)cc(C)c1Oc1cc(N)nc(Nc2ccc(C#N)cc2)n1 | – | 588 | 22300 | – | – | – | – | – | – | – |
| 7.12 | 40 | – | – | Cc1cc(-c2ccccc2C#N)cc(C)c1Oc1cc(N)nc(Nc2ccc(C#N)cc2)n1 | – | 3570 | 25400 | – | – | – | – | – | – | – |
| 42.8 | 122 | – | – | COc1ccccc1-c1cc(C)c(Oc2cc(N)nc(Nc3ccc(C#N)cc3)n2)c(C)c1 | – | 508 | 21800 | – | – | – | – | – | – | – |
| 68.3 | 152 | – | – | Cc1cccc(-c2cc(C)c(Oc3cc(N)nc(Nc4ccc(C#N)cc4)n3)c(C)c2)c1 | – | 404 | 27600 | – | – | – | – | – | – | – |
| 40.1 | 69 | – | – | Cc1ccc(-c2cc(C)c(Oc3cc(N)nc(Nc4ccc(C#N)cc4)n3)c(C)c2)cc1 | – | 249 | 10000 | – | – | – | – | – | – | – |
| 9.6 | 46 | – | – | Cc1cc(-c2ccccc2F)cc(C)c1Oc1cc(N)nc(Nc2ccc(C#N)cc2)n1 | – | 3060 | 29300 | – | – | – | – | – | – | – |
| 9.7 | 45 | – | – | Cc1cc(-c2ccccc2)cc(C)c1Oc1cc(N)nc(Nc2ccc(C#N)cc2)n1 | – | 2640 | 25600 | – | – | – | – | – | – | – |
| 28.4 | 100 | – | – | Cc1cc(-c2ccccc2Cl)cc(C)c1Oc1cc(N)nc(Nc2ccc(C#N)cc2)n1 | – | 882 | 25100 | – | – | – | – | – | – | – |
| 9.7 | 73 | – | – | COc1cccc(-c2cc(C)c(Oc3cc(N)nc(Nc4ccc(C#N)cc4)n3)c(C)c2)c1 | – | 1980 | 19300 | – | – | – | – | – | – | – |
| 15.8 | 52 | – | – | Cc1cc(-c2cccc(F)c2)cc(C)c1Oc1cc(N)nc(Nc2ccc(C#N)cc2)n1 | – | 1570 | 24700 | – | – | – | – | – | – | – |
| 35.2 | 121 | – | – | Cc1ccccc1-c1cc(C)c(Oc2cc(N)nc(Nc3ccc(C#N)cc3)n2)c(C)c1 | – | 726 | 25600 | – | – | – | – | – | – | – |
| 7.7 | 54 | – | – | COc1ccc(-c2cc(C)c(Oc3cc(N)nc(Nc4ccc(C#N)cc4)n3)c(C)c2)cc1 | – | 1390 | 10700 | – | – | – | – | – | – | – |
| 13.6 | 61 | – | – | Cc1cc(-c2ccc(F)cc2)cc(C)c1Oc1cc(N)nc(Nc2ccc(C#N)cc2)n1 | – | 1700 | 23100 | – | – | – | – | – | – | – |
| 34.2 | 102 | – | – | Cc1cc(-c2ccc(Cl)cc2)cc(C)c1Oc1cc(N)nc(Nc2ccc(C#N)cc2)n1 | – | 628 | 21500 | – | – | – | – | – | – | – |
| 5.33 | 50 | – | – | Cc1cc(-c2ccc(C#N)c(F)c2)cc(C)c1Oc1cc(N)nc(Nc2ccc(C#N)cc2)n1 | – | 937 | 5000 | – | – | – | – | – | – | – |
